Where two headings read alike, the source gives them in different places.
Key:
[1] = test system: angiotensin II (aortic blood vessel of rabbits); assay: Antagonistic effect on angiotensin II (A II)-induced tension, aortic blood vessel of rabbits; format: cell-based; conditions: Oryctolagus cuniculus, 0.25 h, A II 4×10^-9 M, 15 minutes
Source text: Antagonistic effect of the compound (I) of the present invention on angiotensin II (hereinafter referred to briefly as "A II") (with aortic blood vessel of rabbits)
The blood-vessel preparation and reaction were done in accordance with the method as described in "European Journal of Pharmacology", 18, 316 (1972). […] [formula] where; T1 =Change in isometric tension of the blood vessel brought about by A II without a test drug substance (g)

[2] = test system: angiotensin II-induced elevation of blood pressure; assay: Inhibitory activity against angiotensin II-induced elevation of blood pressure in rats; format: in vivo, Male SD rats; conditions: for inhibition in vivo at 0.1 mg/kg / inhibition in vivo at 0.3 mg/kg / inhibition in vivo at 0.5 mg/kg: Rattus norvegicus, iv, A II 20 ng/kg/min; for inhibition in vivo at 0.1 mg/kg: 0.1 mg/kg intravenously; for inhibition in vivo at 0.3 mg/kg: 0.3 mg/kg intravenously; for inhibition in vivo at 0.5 mg/kg: 0.5 mg/kg intravenously
[3] = 10 min, 10 min, read-out: Inhibition (%), after 10 min.
[4] = 0.5 h, 30 min, read-out: Inhibition (%), after 30 min.
[5] = 1.5 h, 90 min, read-out: Inhibition (%), after 90 min.

## CCCCc1nc(Cl)c(CC(=O)O)n1Cc1ccccc1Cl [n-C4 H9 / 2-Cl / H / H]
[1]; 10^-7 M drug substance
  inhibition at 0.1 µM: 75%
[2]; [3]
  inhibition in vivo at 0.1 mg/kg: 38%
[2]; [4]
  inhibition in vivo at 0.1 mg/kg: 100%
[2]; [5]
  inhibition in vivo at 0.1 mg/kg: 86%

## O=C(O)Cc1c(Cl)nc(-c2ccc(O)cc2)n1Cc1ccccc1 [drawing 132]
[2]; [3]
  inhibition in vivo at 0.3 mg/kg: 10.7 ± 1.8%
  inhibition in vivo at 0.5 mg/kg: 14.8 ± 1.8%
[2]; [4]
  inhibition in vivo at 0.3 mg/kg: 24.3 ± 2.3%
  inhibition in vivo at 0.5 mg/kg: 36 ± 3%
[2]; [5]
  inhibition in vivo at 0.3 mg/kg: 11.7 ± 6%
  inhibition in vivo at 0.5 mg/kg: 35 ± 3.9%

## CCCCc1nc(Cl)c(CC(=O)O)n1Cc1ccccc1 [n-C4 H9 / H / H / H, 1-Benzyl-2-n-butyl-4-chloroimidazole-5-acetic acid]
[1]; 10^-6 M drug substance, read-out: Inhibition
  inhibition at 1 µM: 55%
[2]; [3]
  inhibition in vivo at 0.1 mg/kg: 19.6 ± 1.5%
  inhibition in vivo at 0.3 mg/kg: 25%
[2]; [4]
  inhibition in vivo at 0.1 mg/kg: 64.3 ± 15.3%
  inhibition in vivo at 0.3 mg/kg: 94%
[2]; [5]
  inhibition in vivo at 0.1 mg/kg: 60 ± 21.5%
  inhibition in vivo at 0.3 mg/kg: 94%

## A II: angiotensin II (hereinafter referred to briefly as "A II") (DRVYIHPF; Angiotensin-2; UniProt P01019 25-32, looked up) [reference compound]
[2]; A II 20 ng/kg/min continuous intravenous infusion, 75 cases, no test drug
  elevation of blood pressure after the infusion of A II, as compared with the one before the infusion: 45.5±2.1 mmHg

## Nc1ccc(-c2nc(Cl)c(CC(=O)O)n2Cc2ccccc2)cc1 [drawing 133]
[2]; [3]
  inhibition in vivo at 0.5 mg/kg: 17.7 ± 1.2%
[2]; [4]
  inhibition in vivo at 0.5 mg/kg: 45.3 ± 2.4%
[2]; [5]
  inhibition in vivo at 0.5 mg/kg: 37 ± 8.6%
